Reference: patent US12479844B2, “Ion channel modulators” (Praxis Precision Medicines, Inc., priority 2018, dated 2025)

Molecular target: T1, human NaV1.6 (hNaV1.6) (Homo sapiens, UniProt Q9UQD0)
T1 construct: expressed in transfected cells; host or cells: HEK-293
Experiment: Modulation of late sodium current (INaL), PatchXpress high throughput electrophysiology
Assay type: cell-based
Conditions: HEK293, HEK-293 cells expressing recombinant human NaV1.6, late current evoked by 300 nM ATX-II, read-out: NaV 1.6 Assay Data (percent inhibition of INaL at hNaV1.6)
Experimental: Functional characterization of exemplary compounds to modulate INaL expressed by the NaV1.6 voltage-gated sodium channel was accomplished using the PatchXpress™ high throughput electrophysiology platform (Molecular Devices, Sunnyvale, CA). HEK-293 cells expressing recombinant, human NaV1.6 (hNaV1.6) were grown in DMEM/high-glucose Dulbecco's modified, 10% FBS, 2 mM sodium pyruvate, 10 mM HEPES and 400 μg/mL G418. Cells were grown to 50%-80% confluency prior to harvesting. Trypsinized cells were washed, allowed to recover for 1 hour and then resuspended in extracellular recording solution at a concentration of 1×10^6 cells/ml. The onboard liquid handling facility of the PatchXpress was used for dispensing cells and applying test compounds. NaV late currents were evoked by the application of 300 nM ATX-II. INaL was evoked by depolarizing pulses to 0 mV for 200 ms from a non-inactivating holding potential (e.g., −120 mV) at a frequency of 0.1 Hz. INaL amplitude and stability were determined by analyzing the mean current amplitude over the final 20 ms of thetest pulse. Following steady state block with exemplary compounds (e.g., as described herein), a Na+ free solution containing an impermeant cation (e.g., Choline or NDMG) was added to confirm the identify of the sodium current. Percent steady-state inhibition of INaL was calculated as: [(INaL_compound)/(INaL_control)]*100, where INaL_compound and INaL_control represent INaL recorded in the presence or absence of compound, respectively.

T1 sequence (Q9UQD0 whole entry): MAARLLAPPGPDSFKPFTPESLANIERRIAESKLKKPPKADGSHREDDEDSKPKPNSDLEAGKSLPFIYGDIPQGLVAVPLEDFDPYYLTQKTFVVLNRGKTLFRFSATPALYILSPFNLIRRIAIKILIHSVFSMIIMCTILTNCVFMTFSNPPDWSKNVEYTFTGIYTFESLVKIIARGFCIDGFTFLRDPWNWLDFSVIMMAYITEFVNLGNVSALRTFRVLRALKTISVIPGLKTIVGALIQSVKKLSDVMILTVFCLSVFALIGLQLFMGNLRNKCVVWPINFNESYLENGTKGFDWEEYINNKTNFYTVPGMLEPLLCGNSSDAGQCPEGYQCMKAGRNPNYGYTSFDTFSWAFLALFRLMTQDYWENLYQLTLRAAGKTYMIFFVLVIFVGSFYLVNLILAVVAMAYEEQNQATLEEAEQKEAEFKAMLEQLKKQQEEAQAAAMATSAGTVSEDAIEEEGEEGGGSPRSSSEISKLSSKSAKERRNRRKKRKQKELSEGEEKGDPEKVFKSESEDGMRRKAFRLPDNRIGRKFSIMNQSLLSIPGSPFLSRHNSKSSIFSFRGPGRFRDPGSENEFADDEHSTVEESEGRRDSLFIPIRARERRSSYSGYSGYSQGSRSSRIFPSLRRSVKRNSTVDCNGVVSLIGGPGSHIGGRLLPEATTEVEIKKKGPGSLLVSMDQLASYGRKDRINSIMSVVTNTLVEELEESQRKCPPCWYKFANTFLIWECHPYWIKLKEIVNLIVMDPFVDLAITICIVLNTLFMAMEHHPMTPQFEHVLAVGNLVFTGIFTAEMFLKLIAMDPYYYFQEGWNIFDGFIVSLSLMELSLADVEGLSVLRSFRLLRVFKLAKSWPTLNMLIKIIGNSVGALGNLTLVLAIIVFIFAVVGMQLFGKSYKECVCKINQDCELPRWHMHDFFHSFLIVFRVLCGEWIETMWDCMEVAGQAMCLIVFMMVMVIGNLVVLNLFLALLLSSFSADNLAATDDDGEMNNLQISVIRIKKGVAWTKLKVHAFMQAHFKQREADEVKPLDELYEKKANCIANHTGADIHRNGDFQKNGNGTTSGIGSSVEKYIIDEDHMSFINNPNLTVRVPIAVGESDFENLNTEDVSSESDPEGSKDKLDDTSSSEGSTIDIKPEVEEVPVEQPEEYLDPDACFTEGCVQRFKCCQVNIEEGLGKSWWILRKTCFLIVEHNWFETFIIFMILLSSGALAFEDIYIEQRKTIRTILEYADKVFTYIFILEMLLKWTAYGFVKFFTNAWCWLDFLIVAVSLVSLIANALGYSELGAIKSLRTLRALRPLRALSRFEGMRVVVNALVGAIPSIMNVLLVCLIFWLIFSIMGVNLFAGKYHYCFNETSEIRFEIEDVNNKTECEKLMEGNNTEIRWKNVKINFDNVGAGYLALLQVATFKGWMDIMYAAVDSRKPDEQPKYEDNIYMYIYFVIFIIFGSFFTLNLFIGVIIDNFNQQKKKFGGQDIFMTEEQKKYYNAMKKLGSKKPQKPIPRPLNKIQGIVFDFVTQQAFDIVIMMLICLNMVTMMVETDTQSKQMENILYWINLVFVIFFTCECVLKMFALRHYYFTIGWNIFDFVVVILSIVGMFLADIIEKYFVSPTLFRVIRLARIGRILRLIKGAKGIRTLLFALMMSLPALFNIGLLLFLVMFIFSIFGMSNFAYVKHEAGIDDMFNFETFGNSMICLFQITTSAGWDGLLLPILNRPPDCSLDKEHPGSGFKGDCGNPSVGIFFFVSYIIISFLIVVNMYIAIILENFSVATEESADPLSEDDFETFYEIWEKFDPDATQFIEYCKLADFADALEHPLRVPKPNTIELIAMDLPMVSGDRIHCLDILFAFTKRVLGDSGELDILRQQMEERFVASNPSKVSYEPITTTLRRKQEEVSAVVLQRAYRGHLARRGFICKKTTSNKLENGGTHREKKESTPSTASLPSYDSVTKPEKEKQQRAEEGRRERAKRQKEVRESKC

Row | Structure (SMILES) | inhibition at 1 µM
1 | Cc1cc(OC(F)(F)F)ccc1-c1cn2c(C(F)(F)OC3CC3)nnc2cn1 [Compound 12, 3-[cyclopropoxy(difluoro)methyl]-6-[2-methyl-4-(trifluoromethoxy)phenyl]-[1,2,4]triazolo[4,3-a]pyrazine] | 30 to 70%
2 | CCOC(F)(F)c1nnc2cnc(-c3ccc(OC4CC(F)(F)C4)cc3)cn12 [Compound 37, 6-[4-(3,3-difluorocyclobutoxy)phenyl]-3-[ethoxy(difluoro)methyl]-[1,2,4]triazolo[4,3-a]pyrazine] | > 70%
3 | Cc1cc(OC(F)(F)F)ccc1-c1cn2c(COC3CC3)nnc2cn1 [Compound 20, 3-(cyclopropoxymethyl)-6-[2-methyl-4-(trifluoromethoxy)phenyl]-[1,2,4]triazolo[4,3-a]pyrazine] | 30 to 70%
4 | COCc1nnc2ccc(-c3ccc(OC(F)(F)F)cc3C)nn12 [Compound 8, 3-(methoxymethyl)-6-[2-methyl-4-(trifluoromethoxy)phenyl]-[1,2,4]triazolo[4,3-b]pyridazine] | 30 to 70%
5 | COC(F)(F)c1nnc2cnc(-c3cc(F)c(OC(F)(F)F)cc3C)cn12 [Compound 40, 3-[difluoro(methoxy)methyl]-6-[5-fluoro-2-methyl-4-(trifluoromethoxy)phenyl]-[1,2,4]triazolo[4,3-a]pyrazine] | > 70%
6 | COC(F)(F)c1nnc2cnc(-c3cc(C)c(OC(F)(F)F)cc3F)cn12 [Compound 42, 3-[difluoro(methoxy)methyl]-6-[2-fluoro-5-methyl-4-(trifluoromethoxy)phenyl]-[1,2,4]triazolo[4,3-a]pyrazine] | > 70%
7 | CCOC(F)(F)c1nnc2cnc(-c3ccc(OC(F)(F)F)cc3COC3CC3)cn12 [Compound 36, 6-[2-(cyclopropoxymethyl)-4-(trifluoromethoxy)phenyl]-3-[ethoxy(difluoro)methyl]-[1,2,4]triazolo[4,3-a]pyrazine] | 30 to 70%
8 | COCc1nnc2cnc(-c3ccc(OC(F)(F)F)cc3C)cn12 [Compound 3, 3-(methoxymethyl)-6-[2-methyl-4-(trifluoromethoxy)phenyl]-[1,2,4]triazolo[4,3-a]pyrazine] | < 30%
9 | CCOC(F)(F)c1nnc2cnc(-c3ccc(OC(F)(F)F)c(C)c3)cn12 [Compound 9, 3-[ethoxy(difluoro)methyl]-6-[3-methyl-4-(trifluoromethoxy)phenyl]-[1,2,4]triazolo[4,3-a]pyrazine] | 30 to 70%
10 | COC(F)(F)c1nnc2cnc(-c3c(C)cc(OC(F)(F)F)cc3F)cn12 [Compound 43, 3-[difluoro(methoxy)methyl]-6-[2-fluoro-6-methyl-4-(trifluoromethoxy)phenyl]-[1,2,4]triazolo[4,3-a]pyrazine] | 30 to 70%
11 | Cc1cc(OC(F)(F)F)ccc1-c1cn2c(COCc3ccccc3)nnc2cn1 [Compound 6, 3-((benzyloxy)methyl)-6-(2-methyl-4-(trifluoromethoxy)phenyl)-[1,2,4]triazolo[4,3-a]pyrazine] | > 70%
12 | COC(F)(F)c1nnc2ccc(-c3ccc(OC(F)(F)F)cc3C)nn12 [Compound 14, 3-[difluoro(methoxy)methyl]-6-[2-methyl-4-(trifluoromethoxy)phenyl]-[1,2,4]triazolo[4,3-b]pyridazine] | 30 to 70%
13 | CCOC(F)(F)c1nnc2cnc(-c3ccc(OC4CC(F)(F)C4)cc3C)cn12 [Compound 38, 6-[4-(3,3-difluorocyclobutoxy)-2-methyl-phenyl]-3-[ethoxy(difluoro)methyl]-[1,2,4]triazolo[4,3-a]pyrazine] | > 70%
14 | CCOCc1nnc2cnc(-c3ccc(OC(F)(F)F)cc3C)cn12 [Compound 5, 3-(ethoxymethyl)-6-[2-methyl-4-(trifluoromethoxy)phenyl]-[1,2,4]triazolo[4,3-a]pyrazine] | 30 to 70%
15 | COC(F)(F)c1nnc2cnc(-c3ccc(OC(F)(F)F)cc3C3CC3)cn12 [Compound 33, 6-[2-cyclopropyl-4-(trifluoromethoxy)phenyl]-3-[difluoro(methoxy)methyl]-[1,2,4]triazolo[4,3-a]pyrazine] | > 70%
16 | CCOC(C)(C)c1nnc2cnc(-c3ccc(OC(F)(F)F)cc3C)cn12 [Compound 41, 3-(1-ethoxy-1-methyl-ethyl)-6-[2-methyl-4-(trifluoromethoxy)phenyl]-[1,2,4]triazolo[4,3-a]pyrazine] | < 30%
17 | Cc1cc(OC(F)(F)F)ccc1-c1cn2c(C(F)(F)OCC3CC3)nnc2cn1 [Compound 18, 3-[cyclopropylmethoxy(difluoro)methyl]-6-[2-methyl-4-(trifluoromethoxy)phenyl]-[1,2,4]triazolo[4,3-a]pyrazine] | > 70%
18 | COC(F)(F)c1nnc2cnc(-c3ccc(OC(F)(F)F)cc3COC3CC3)cn12 [Compound 35, 6-[2-(cyclopropoxymethyl)-4-(trifluoromethoxy)phenyl]-3-[difluoro(methoxy)methyl]-[1,2,4]triazolo[4,3-a]pyrazine] | 30 to 70%

Results, then the compound that gave them:

Row | inhibition at 1 µM | Structure (SMILES)
19 | 30 to 70% | COC(F)(F)c1nnc2cnc(-c3ccc(O[C@@H](C)C(F)(F)F)cc3C)cn12 (single isomer, unassigned) [Compound 28]
20 | > 70% | CCOC(F)(F)c1nnc2cnc(-c3ccc(OC(C)C)cc3)cn12 [Compound 25, 3-(ethoxydifluoromethyl)-6-(4-isopropoxyphenyl)-[1,2,4]triazolo[4,3-a]pyrazine]
21 | > 70% | CCOC(F)(F)c1nnc2cnc(-c3ccc(O[C@H](C)C(F)(F)F)cc3C)cn12 (single isomer, unassigned) [Compound 29]
22 | > 70% | COC(F)(F)c1nnc2cnc(-c3ccc(OC(F)(F)F)cc3C)cn12 [Compound 2, 3-[difluoro(methoxy)methyl]-6-[2-methyl-4-(trifluoromethoxy)phenyl]-[1,2,4]triazolo[4,3-a]pyrazine]
23 | 30 to 70% | CCOC(F)(F)c1nnc2cnc(-c3ccc(O[C@@H](C)C(F)(F)F)cc3C)cn12 (single isomer, unassigned) [Compound 30]
24 | 30 to 70% | COC(F)(F)c1nnc2cnc(-c3ccc(OC(C)C)cc3C)cn12 [Compound 22, 3-(difluoro(methoxy)methyl)-6-(4-isopropoxy-2-methylphenyl)-[1,2,4]triazolo [4,3-a]pyrazine]
25 | > 70% | COCc1cc(OC(F)(F)F)ccc1-c1cn2c(C(F)(F)OC)nnc2cn1 [Compound 1, 3-[difluoro(methoxy)methyl]-6-[2-(methoxymethyl)-4-(trifluoromethoxy)phenyl]-[1,2,4]triazolo[4,3-a]pyrazine]
26 | > 70% | COC(F)(F)c1nnc2cnc(-c3ccc(OC(C)C)cc3)cn12 [Compound 24, 3-(difluoro(methoxy)methyl)-6-(4-isopropoxyphenyl)-[1,2,4]triazolo[4,3-a]pyrazine]
27 | < 30% | CO[C@H](C)c1cc(OC(F)(F)F)ccc1-c1cn2c(C(F)(F)OC)nnc2cn1 (single isomer, unassigned) [Compound 31]
28 | > 70% | CCc1cc(OC(F)(F)F)ccc1-c1cn2c(C(F)(F)OC)nnc2cn1 [Compound 26, 3-[difluoro(methoxy)methyl]-6-[2-ethyl-4-(trifluoromethoxy)phenyl]-[1,2,4]triazolo[4,3-a]pyrazine]
